Experimental data: US20260013442A1, “METHOD FOR VEGETATIVE PROPAGATION OF PLANTS” (LETAVIS AB, priority 2020, published 2026)

Columns and labels:
[1] = test system: cuttings from rose No. 1 (garden rose bush); assay: Callus/root formation on cuttings from rose No. 1 in oxytocin solution; assay type: in vivo; conditions: for Grading of callus formation: grading 0-8
Protocol: (§1) Cuttings, about 7 cm long, from the top of a branch of two different roses (rose No. 1 and rose No. 2) and cut directly under a node were put into 100 ml Erlenmeyer flasks with concentrations of oxytocin from 0 to 10 μM (0, 0.5, 1, 2.5, 5 and 10 μM) in tap water. Two cuttings were added to each Erlenmeyer flask. Thereafter, the Erlenmeyer flasks were placed in a growing room under a light intensity of 800 μmol*m^−2*s^−1.
Cuttings in this experiment were taken from a garden rose bush. […] A grading of the effect of different oxytocin concentrations on the formation of callus from the cuttings can be seen in Table 1. Callus can easily be explained as an accumulation of cells that has not developed into any specific tissue, such as root tissues. Best coverage of callus on the cutting surface of the cuttings was obtained at a concentration of oxytocin of 2.5 μM (FIG. 1).

cuttings from hibiscuses = assay: Effect of oxytocin on cuttings of hibiscus; assay type: in vivo; conditions: 90 days
Source text: […] Five cuttings per treatment were used.
The flasks were covered with aluminum foil and the flasks were kept at room temperature in a window.
The experiment was allowed to run for 90 days whereafter the development of calluses and roots was documented.

[2] = test system: cut flowers of roses of the variety Furiosa; assay: Root growth of stalks of cut flowers of the variety Furiosa; assay type: in vivo, rose
Protocol: Cut flowers of roses of the variety Furiosa, which had obtained at least 2 side shoots from the stalk, were put in water to allow the side shoots to continue to grow. When the side shoots had reached a length of about 5 cm, the stalk was cut by some mm under the lowest side shoot, which was also removed from the stalk. The stalks were then put into 100 ml Erlenmeyer flasks with either water alone or an oxytocin solution. The solution contained either 1, 4 or 8 μM oxytocin. The liquid in the Erlenmeyer flasks was darkened by coating the flasks with aluminium foil. The flasks were placed in daylight.

[3] = test system: potato tubers of the summer variety Perlo; assay: Potato tubers treated with oxytocin before pre-sprouting in sunlight; assay type: in vivo; conditions: nineteen days of pre-sprouting
Protocol: Potato tubers of the summer variety Perlo were pre-sprouting in sunlight after treatment with either tap water, 1 μM oxytocin or 10 μm oxytocin for 6 or 24 hours. For each treatment, 8 tubers were treated by placing them in plastic vessels and covered them with the respective test solution. After treatment, the tubers were pre-sprouted in sunlight at about 20° C. Nineteen days later, the number of sprouts were counted for each tuber and the length per sprout was measured.

[4] = test system: cuttings from rose No. 2 (mini rose); assay: Callus/root formation on cuttings from rose No. 2 in oxytocin solution; assay type: in vivo; conditions: for Grading of callus formation: grading 0-8
Protocol: as §1
Cuttings in this experiment was taken from the small rose bushes in pot bought in a flower shop (mini rose), and put into Erlenmeyer flasks. […] Best effect was obtained at 10 μM oxytocin, followed closely by 2.5 μM oxytocin.
Vigorous development of callus indicates high potential for root formation. To study this effect, the Erlenmeyer flasks with the cuttings from the experiment with rose No. 2 have been covered with aluminium foil.

rose cuttings = assay: Effect of different concentrations of oxytocin on cuttings of roses (58 days); assay type: in vivo; conditions: for Total No. roots: 4 E-flasks with 2 cuttings; for Number of cuttings with roots / Number of living cuttings / Per cutting No. roots / Per cutting Number of side shoots >10 mm / Per cutting mm root / Vitality: n = 8; for Vitality: grading 0-5
Protocol: On Feb. 11, 2020, cuttings from purchased pots with roses were put into 100 ml Erlenmeyer flasks (E-flasks) with a concentration of oxytocin from 0 to 50 μM (0, 0.5, 1, 5, 10, 20 and 50 μM). The experiment consisted of four E-flasks per concentration with two cuttings in each E-flask. The E-flasks were covered with aluminum foil and placed in a culture room. From day 45, measurements were made every 4-5 days. At day 58, the trial was interrupted.

[5] = 5 μM oxytocin, 31 days, 2 cuttings

Substance: oxytocin
- Grading of callus formation ([1]; 0.5 μM oxytocin, 31 days, 2 cuttings): 6
- Grading of callus formation ([1]; 1 μM oxytocin, 31 days, 2 cuttings): 4
- Grading of callus formation ([1]; 2.5 μM oxytocin, 31 days, 2 cuttings): 7
- small roots formed [1, 5]: one
- Grading of callus formation [1, 5]: 6
- length of root developed from callus ([1]; 5 μM oxytocin, one of the two cuttings): 2-3 mm
- Grading of callus formation ([1]; 10 μM oxytocin, 31 days, 2 cuttings): 5
- leaf aging ([1]; 5-10 μM oxytocin): inhibit leaf aging
- concentration with best coverage of callus on the cutting surface ([1]; 31 days, tested 0-10 μM): 2.5 µM
- Number of cuttings that had developed calluses (cuttings from hibiscuses; 1 μM oxytocin, five cuttings): One
- Number of cuttings that had developed a root (cuttings from hibiscuses; 5 μM oxytocin, five cuttings): one
- Number of cuttings that had developed calluses (cuttings from hibiscuses; 5 μM oxytocin, five cuttings): One
- root length (cuttings from hibiscuses; 5 μM oxytocin, one cutting): ~2 mm
- Number of cuttings that had developed calluses (cuttings from hibiscuses; 10 μM oxytocin, five cuttings): two
- root quality of stalk ([2]; 1 μM oxytocin, one month after the 2.5 months): showed the best root
- survival of stalks ([2]; 4 μM oxytocin, one month after the 2.5 months, secondary fungal growth): had died due to a secondary fungal growth
- root formation on stalks ([2]; 1, 4 or 8 μM oxytocin, after about 2.5 months, untreated had died): obtained roots
- root growth on stalks ([2]; 1 and 8 μM oxytocin, one month after the 2.5 months): roots had grown much longer
- percentage increase of long sprouts (over 5 mm) compared to tap water for 6 hours ([3]; 1 μM oxytocin for 6 hours): 124%
- percentage increase in number of shoots compared to tap water for 6 hours ([3]; 1 μM oxytocin for 24 hours): 34.6%
- percentage increase of long sprouts (over 5 mm) compared to tap water for 6 hours ([3]; 1 μM oxytocin for 24 hours): 112.5%
- percentage increase of long sprouts (over 5 mm) compared to tap water for 6 hours ([3]; 10 μM oxytocin for 6 hours): 100%
- percentage increase in number of shoots compared to tap water for 6 hours ([3]; 10 μM oxytocin for 24 hours): 37.5%
- Grading of callus formation ([4]; 0.5 μM oxytocin, 24 days, 2 cuttings): 2
- root formation ([4]; 0.5 μM oxytocin, nineteen days after day 24, flasks covered with aluminium foil): roots had been formed in all treatments except in 0.5 μM oxytocin
- Grading of callus formation ([4]; 1 μM oxytocin, 24 days, 2 cuttings): 3
- Grading of callus formation ([4]; 2.5 μM oxytocin, 24 days, 2 cuttings): 6
- Grading of callus formation ([4]; 5 μM oxytocin, 24 days, 2 cuttings): 1
- cuttings showing root development ([4]; 5 μM oxytocin, nineteen days after day 24, 2 cuttings): one of the two cuttings
- Grading of callus formation ([4]; 10 μM oxytocin, 24 days, 2 cuttings): 7
- development of roots from cuttings ([4]; 1-10 μM oxytocin): stimulated the development of roots
- root development ([4]; 2.5 and 10 μM oxytocin, nineteen days after day 24): Root development was best
- leaf aging ([4]; 5-10 μM oxytocin): inhibit leaf aging
- concentration with best effect on development of callus ([4]; 24 days, tested 0-10 μM): 10 µM
- Root length Mean length (rose cuttings; 0.5 μM oxytocin, 58 days): 13.3 mm
- Total No. roots (rose cuttings; 0.5 μM oxytocin, 58 days): 26
- Number of cuttings with roots (rose cuttings; 0.5 μM oxytocin, 58 days): 5
- Number of living cuttings (rose cuttings; 0.5 μM oxytocin, 58 days): 7
- Per cutting No. roots (rose cuttings; 0.5 μM oxytocin, 58 days): 3.3
- Per cutting Number of side shoots >10 mm (rose cuttings; 0.5 μM oxytocin, 58 days): 0.4
- Per cutting mm root (rose cuttings; 0.5 μM oxytocin, 58 days): 43 mm
- Vitality (rose cuttings; 0.5 μM oxytocin, 58 days): 2.6
- Root length Mean length (rose cuttings; 1 μM oxytocin, 58 days): 17.4 mm
- Total No. roots (rose cuttings; 1 μM oxytocin, 58 days): 55
- Number of cuttings with roots (rose cuttings; 1 μM oxytocin, 58 days): 6
- Number of living cuttings (rose cuttings; 1 μM oxytocin, 58 days): 8
- Per cutting No. roots (rose cuttings; 1 μM oxytocin, 58 days): 6.9
- Per cutting Number of side shoots >10 mm (rose cuttings; 1 μM oxytocin, 58 days): 1
- Per cutting mm root (rose cuttings; 1 μM oxytocin, 58 days): 119 mm
- Vitality (rose cuttings; 1 μM oxytocin, 58 days): 3.5
- time after which all cuttings had developed roots (rose cuttings; 5 μM oxytocin): 50 days
- Root length Mean length (rose cuttings; 5 μM oxytocin, 58 days): 11.6 mm
- Total No. roots (rose cuttings; 5 μM oxytocin, 58 days): 51
- Number of cuttings with roots (rose cuttings; 5 μM oxytocin, 58 days): 7
- Number of living cuttings (rose cuttings; 5 μM oxytocin, 58 days): 7
- Per cutting No. roots (rose cuttings; 5 μM oxytocin, 58 days): 6.4
- Per cutting Number of side shoots >10 mm (rose cuttings; 5 μM oxytocin, 58 days): 0.6
- Per cutting mm root (rose cuttings; 5 μM oxytocin, 58 days): 76 mm
- Vitality (rose cuttings; 5 μM oxytocin, 58 days): 2.5
- cuttings that had developed roots (rose cuttings; 5 μM oxytocin, day 45): five out of seven
- delay until all cuttings had roots, compared with 5 μM oxytocin (rose cuttings; 10 μM and 50 μM oxytocin): 4 to 8 days
- Root length Mean length (rose cuttings; 10 μM oxytocin, 58 days): 11.4 mm
- Total No. roots (rose cuttings; 10 μM oxytocin, 58 days): 46
- Number of cuttings with roots (rose cuttings; 10 μM oxytocin, 58 days): 7
- Number of living cuttings (rose cuttings; 10 μM oxytocin, 58 days): 7
- Per cutting No. roots (rose cuttings; 10 μM oxytocin, 58 days): 5.8
- Per cutting Number of side shoots >10 mm (rose cuttings; 10 μM oxytocin, 58 days): 0.5
- Per cutting mm root (rose cuttings; 10 μM oxytocin, 58 days): 66 mm
- Vitality (rose cuttings; 10 μM oxytocin, 58 days): 2.9
- Root length Mean length (rose cuttings; 20 μM oxytocin, 58 days): 12.7 mm
- Total No. roots (rose cuttings; 20 μM oxytocin, 58 days): 46
- Number of cuttings with roots (rose cuttings; 20 μM oxytocin, 58 days): 5
- Number of living cuttings (rose cuttings; 20 μM oxytocin, 58 days): 6
- Per cutting No. roots (rose cuttings; 20 μM oxytocin, 58 days): 5.8
- Per cutting Number of side shoots >10 mm (rose cuttings; 20 μM oxytocin, 58 days): 0.5
- Per cutting mm root (rose cuttings; 20 μM oxytocin, 58 days): 72 mm
- Vitality (rose cuttings; 20 μM oxytocin, 58 days): 2.3
- Root length Mean length (rose cuttings; 50 μM oxytocin, 58 days): 10.0 mm
- Total No. roots (rose cuttings; 50 μM oxytocin, 58 days): 52
- Number of cuttings with roots (rose cuttings; 50 μM oxytocin, 58 days): 8
- Number of living cuttings (rose cuttings; 50 μM oxytocin, 58 days): 8
- Per cutting No. roots (rose cuttings; 50 μM oxytocin, 58 days): 6.5
- Per cutting Number of side shoots >10 mm (rose cuttings; 50 μM oxytocin, 58 days): 0.4
- Per cutting mm root (rose cuttings; 50 μM oxytocin, 58 days): 65 mm
- Vitality (rose cuttings; 50 μM oxytocin, 58 days): 3.5
- cuttings that had developed callus (rose cuttings; 50 μM oxytocin, day 45): all cuttings
- cuttings that had calluses (rose cuttings; 1, 5 and 10 μM oxytocin, day 45): all but one of the living cuttings
- concentration giving most roots and longest total length of roots per cutting (rose cuttings; 6 cuttings per concentration (FIG. 7)): 1 µM
- concentration most potent for callus and roots at nodes higher up on the stem (rose cuttings; 58 days, tested 0-50 μM): 20 µM
- total amount of roots formed, average over concentrations (rose cuttings; concentrations of 1 M and above, 58 days, compared to 30 at 0 μM): 50.5 mm
